Data taken from patent publication US20050181360A1, “Assay for cell cycle modulators based on the modulation of cyclin d1 degradation in response to ionising radiation” (priority 2000, published 2005).
Residues, ends and D or L forms follow the SMILES beside them. *: point of attachment. Cbz = O=C(OCc1ccccc1)*

Assays:
Assay type in all cases: cell-based
[1] = test system: cyclin D1 protein in MCF-7 cells; assay: IR-induced cyclin D1 downregulation with proteasome inhibitor, Western blot; settings: 5 mM cbz-LLL added after IR for two hours
Experimental: (§1) We then asked whether cyclin D1 protein stability was affected in response to IR using a pulse-chase experiment. MCF-7 cells were pulse-labelled with [^35S]-methionine and after IR chased with excess cold methionine for the indicated periods of time. Cyclin D1 protein was immunoprecipitated, separated on SDS-PAGE and detected by PhosphorImager. Cyclin D1 was destabilized immediately after IR; its half-life decreased from 40 minutes to less then 20 (FIG. 2). To ask whether the IR-induced degradation of cyclin D1 is mediated by the proteasome, MCF-7 cells were exposed to IR and subsequently the proteasome inhibitor cbz-LLL was added at increasing concentrations for two hours. After two hours, protein lysates were made, separated on 10% SDS PAGE, and Western blotted sequentially with antibodies against cyclin D1, p53 and cyclin E proteins.

[2] = test system: CDK2 activity precipitated from MCF-7/E6 cells; assay: Immunoprecipitation-kinase assay of CDK2 activity after IR (histone H1 substrate); settings: two hours after IR, 10 mM cbz-LLL
Experimental: We next determined the CDK2 activity precipitated from MCF-7/E6 cells treated with IR. Cells were treated as above, except that cells were harvested after 2 hours. […] Identical results were obtained with parental MCF-7 cells. Therefore, protein degradation seems to be necessary for fast CDK2 kinase inhibition after genotoxic stress.
We then examined the CDK2 activity in response to IR of cells transiently over-expressing either D1TA or D1TA-L32A proteins. MCF-7/E6 cells were electroporated as above, irradiated (20 Gy) and harvested 2 hours later. CDK2 protein was immunoprecipitated and its kinase activity was examined using Histone 1 as a substrate (H1). CDK2 protein level was determined by immunoblotting (IB) of the same membrane with an antibody against CDK2.
To determine CDK2 activity, specific complexes from either MCF-7/Neo or MCF-7/E6 cells were immunoprecipitated from extracts using anti-CDK2 antibody (M-2). The beads were washed two additional times with kinase buffer (20 mM Tris HCl pH:7.4, 4 mM MgCl2 and 0.5 mM DTT) and kinase reaction was carried out in […] volume kinase buffer containing […] histone-H1 as a specific substrate, […] [γ-^32P]-ATP (5000 mCi/mmol, Amersham) and […] ATP at 37 C for 30 minutes. GSK3-β activity, was determined exactly as described in (van Weeren et al., 1998) using peptide PG-S1 as a substrate.

[3] = test system: cyclin D1 protein in MCF-7 cells; assay: Effect of GSK3 inhibition by Li+ on IR-induced cyclin D1 degradation, immunoblot
Source text: Activation of the PI3K-PKB/Akt-GSK-3β pathway leads to cyclin D1 degradation through phosphorylation of threonine 286 of cyclin D1 by GSK3-β (Diehl et al., 1998). We therefore asked whether this pathway is also activated by IR and is involved in stress-induced degradation of cyclin D1. To investigate the co-immunoprecipitation of GSK3-β with CDK4-cyclin D1 complex, MCF-7 cells were subjected to treatment with proteasome inhibitor cbz-LLL and IR. 5% of the cell lysates or the immunoprecipitated protein complexes were separated on 10% SDS-PAGE and immunoblotted against cyclin-D1, CDK4, GSK3- and control JNK1 proteins. […] We used proteasome inhibitors to protect cyclin D1 from degradation thereby making a direct comparison between the different treatments possible. […] MCF-7 cells were treated with increasing concentrations of LiCl or control KCl and subsequently IR (20 Gy). Lysates were prepared after 2 hours, separated on 10% SDS-PAGE and immunoblotted sequentially with anti-cyclin D1 and anti-p53 antibodies. If this pathway is involved, Li^+ ions should inhibit cyclin D1 degradation.

cyclin D1 protein = assay: Cyclin D1 degradation in response to genotoxic agents
Experimental: as §1

MCF-7 cells = assay: IR-induced degradation of transfected cyclin mutants, immunoblot; settings: transfected MCF-7 cells, IR 20 Gy, two hours
Source text: To map the motif in cyclin D1 that mediates its degradation by genotoxic stress we analyzed several mutants of D1 by expression in MCF-7 cells. In all these experiments a co-transfected GFP construct was used to confirm equal transfection efficiencies between irradiated- and control cells. When cyclin D1 was mutated at a site within the cyclin box that is essential for activation of CDK4/6 (mutant K112E), D1 degradation by IR remained. The same result was obtained when the pRb family binding site in cyclin D1 was mutated (LxCxE mutant). We therefore conclude that D1 induced degradation by genotoxic stress is independent of both CDK4/6 kinase and pRb binding.
In the yeast Saccharomyces cerevisiae, degradation of the cyclin C homologue Ume3p can be induced by various stress signals such as heat, oxidative stress and ethanol shock (Cooper et al., 1997; Cooper et al., 1999). Three regions in Ume3p are required for stress-induced degradation, including a destruction box at the amino terminus (RxxL motif), the amino terminal region of the cyclin box and a PEST domain. […] Since cyclin D2 is not degraded by the genotoxic stress response we mutated cyclin D1 to the corresponding amino acid in cyclin D2. […] To further investigate this, we performed a pulse-chase experiment with the cyclin D1 L32A destruction box mutant to determine its half-life. […]

CC(C)C[C@@H](C=O)NC(=O)[C@H](CC(C)C)NC(=O)[C@H](CC(C)C)NC(=O)OCc1ccccc1 [cbz-LLL] (Cbz-Leu-Leu-Leu-aldehyde)
block of cyclin D1 downregulation by IR [1]: completely block | effect on cyclin E protein levels [1]: without any effect | IR-induced reduction of CDK2 activity [2]: blocked

[Cl-].[Li+] [Li^+ ions, LiCl]
effect on cyclin D1 degradation by IR ([3]; increasing concentrations of LiCl, IR 20 Gy, lysates after 2 hours): no detectable effect | cyclin D1 levels in non-irradiated cells ([3]; non-irradiated MCF-7 cells): increase

N.N.[Cl][Pt][Cl] [cis-platin]
cyclin D1 degradation in response to genotoxic agent (cyclin D1 protein): rapidly degraded

T286A: cyclin D1 mutant in which the GSK3-β phosphorylation site was mutated
degradation by IR (MCF-7 cells): fully responsive

K112E: cyclin D1 mutated within the cyclin box at a site essential for activation of CDK4/6
degradation by IR (MCF-7 cells): remained
